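Five compound concentrations were applied to cells in 96-well plates for 48 hours; endpoints were derived by simple linear interpolation of the resulting dose-response curve. At the GI50, growth is halved.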 Calls of active or inactive are those of the source. Cut-off read from the data, not from the text of the source: active = GI50 up to about 1.1 µM and inactive = higher.
Tests used:
Assay in all cases: NCI tumour cell line growth inhibition, 48 h
M14 = system: M14
786-0 = system: 786-0
OVCAR-8 = system: OVCAR-8
HOP-62 = system: HOP-62
IGROV-1 = system: IGROV-1
U-251 = system: U-251
M19-MEL = system: M19-MEL
OVCAR-5 = system: OVCAR-5
SNB-75 = system: SNB-75
UACC-257 = system: UACC-257
CCRF-CEM = system: CCRF-CEM
UO-31 = system: UO-31
SNB-19 = system: SNB-19
SF-268 = system: SF-268
SR = system: SR
NCI-H226 = system: NCI-H226
T47D = system: T47D
HT-29 = system: HT-29
MDA-N = system: MDA-N
BT-549 = system: BT-549

SMILES | GI50 (M14) | GI50 (786-0) | GI50 (OVCAR-8) | GI50 (HOP-62) | GI50 (IGROV-1) | GI50 (U-251) | GI50 (M19-MEL) | GI50 (OVCAR-5) | GI50 (SNB-75) | GI50 (UACC-257) | GI50 (CCRF-CEM) | GI50 (UO-31) | GI50 (SNB-19) | GI50 (SF-268) | GI50 (SR) | GI50 (NCI-H226) | GI50 (T47D) | GI50 (HT-29) | GI50 (MDA-N) | GI50 (BT-549)
NN=C1/C(=C\c2ccccc2)CCC/C1=C/c1ccccc1 | 41.6 µM (inactive) | 39.5 µM (inactive) | 50.4 µM (inactive) | 32.8 µM (inactive) | 39.1 µM (inactive) | 34.9 µM (inactive) | 31.6 µM (inactive) | 94 µM (inactive) | 17.7 µM (inactive) | 30.8 µM (inactive) | 20.1 µM (inactive) | 27.1 µM (inactive) | 44 µM (inactive) | 34.3 µM (inactive) | – | – | – | – | – | –
CC(=O)/C=C\C1CC2C=CC1C2 (stereo unspecified) | 33.7 µM (inactive) | 43.1 µM (inactive) | 36.3 µM (inactive) | 92.3 µM (inactive) | 81.3 µM (inactive) | 45.4 µM (inactive) | 55.3 µM (inactive) | 53.3 µM (inactive) | 21.6 µM (inactive) | – | 16.3 µM (inactive) | 41 µM (inactive) | 53.5 µM (inactive) | 25.8 µM (inactive) | – | – | – | – | – | –
O=S(=O)(N/C(=N\O)Nc1ccc(Cl)cc1)c1ccccc1 | 12.7 µM (inactive) | 1.87 µM (inactive) | 10.2 µM (inactive) | 44.8 µM (inactive) | 10.5 µM (inactive) | 19.5 µM (inactive) | – | 14.5 µM (inactive) | 1.71 µM (inactive) | 10.5 µM (inactive) | 33.9 µM (inactive) | 3.23 µM (inactive) | 22.8 µM (inactive) | 10.8 µM (inactive) | 1.15 µM (inactive) | 33.7 µM (inactive) | 2.74 µM (inactive) | 16.1 µM (inactive) | 3.9 µM (inactive) | 12.6 µM (inactive)
O=C1CCN(CCC(F)(F)C(F)(F)C(F)(F)C(F)(F)C(F)(F)C(F)(F)F)C(=S)N1CCC(F)(F)C(F)(F)C(F)(F)C(F)(F)C(F)(F)C(F)(F)F | > 100 µM (inactive) | > 100 µM (inactive) | > 100 µM (inactive) | > 100 µM (inactive) | > 100 µM (inactive) | > 100 µM (inactive) | – | > 100 µM (inactive) | > 100 µM (inactive) | > 100 µM (inactive) | > 100 µM (inactive) | > 100 µM (inactive) | > 100 µM (inactive) | > 100 µM (inactive) | > 100 µM (inactive) | > 100 µM (inactive) | > 100 µM (inactive) | > 100 µM (inactive) | > 100 µM (inactive) | > 100 µM (inactive)
Nc1nc(Cl)cc(NCC2(CO)CC(CCc3ccccc3)C2)n1 (stereo unspecified) | > 100 µM (inactive) | > 71.8 µM (inactive) | 21.8 µM (inactive) | > 37.6 µM (inactive) | > 100 µM (inactive) | > 100 µM (inactive) | – | > 100 µM (inactive) | 20.3 µM (inactive) | 0.461 µM (active) | > 58.9 µM (inactive) | > 75.2 µM (inactive) | > 100 µM (inactive) | > 55.8 µM (inactive) | 1.31 µM (inactive) | > 100 µM (inactive) | 0.542 µM (active) | > 46 µM (inactive) | > 100 µM (inactive) | > 32.8 µM (inactive)
CCOC(=O)CCC(NC(=O)c1ccc(Nc2nc3ccc(C(F)(F)F)cc3nc2-c2ccccc2)cc1)C(=O)OCC (stereo unspecified) | 19.7 µM (inactive) | > 100 µM (inactive) | > 100 µM (inactive) | > 100 µM (inactive) | > 100 µM (inactive) | > 100 µM (inactive) | – | > 92.9 µM (inactive) | > 100 µM (inactive) | 17.5 µM (inactive) | 25.8 µM (inactive) | 31.5 µM (inactive) | > 100 µM (inactive) | 55.6 µM (inactive) | 33.9 µM (inactive) | > 57.3 µM (inactive) | 22.1 µM (inactive) | > 100 µM (inactive) | 19.6 µM (inactive) | > 100 µM (inactive)
O=C1c2cccnc2S(=O)(=O)N1c1ccc([N+](=O)[O-])cc1 | > 100 µM (inactive) | > 100 µM (inactive) | > 100 µM (inactive) | > 100 µM (inactive) | > 100 µM (inactive) | > 100 µM (inactive) | – | > 100 µM (inactive) | > 100 µM (inactive) | > 100 µM (inactive) | 68.5 µM (inactive) | > 100 µM (inactive) | > 100 µM (inactive) | > 100 µM (inactive) | 29.9 µM (inactive) | > 100 µM (inactive) | > 100 µM (inactive) | > 100 µM (inactive) | > 100 µM (inactive) | > 100 µM (inactive)
O=C(O)Cc1cc(=O)oc2cc(O)c(Cl)cc12 | > 100 µM (inactive) | > 100 µM (inactive) | > 100 µM (inactive) | > 100 µM (inactive) | > 100 µM (inactive) | > 100 µM (inactive) | > 100 µM (inactive) | > 100 µM (inactive) | 28.6 µM (inactive) | – | > 100 µM (inactive) | – | > 100 µM (inactive) | > 100 µM (inactive) | – | > 100 µM (inactive) | – | > 100 µM (inactive) | – | –

Reference: ChEMBL document CHEMBL1201862, “PubChem BioAssay data set” (2004)
